Test results: article PMC10541425, “Targeting Toll-like receptor-driven systemic inflammation by engineering an innate structural fold into drugs” (Nature Communications, 2023)
Like-named read-outs stand apart in the source and are kept apart here. Residues, ends and D or L forms follow the SMILES beside them.

Assays:
in vitro = details: human, THP1-XBlue-CD14 reporter cells, Cell viability
Procedure: (§5) Effects on NF-κB activation were assessed using THP1-XBlue-CD14 reporter cells (InvivoGen, San Diego, CA, USA). Briefly, 180,000 cells well^−1 were seeded in 96-well plates in phenol red RPMI media, supplemented with 10% (vv^−1) heat-inactivated FBS and 1% (vv^−1) Antibiotic-Antimycotic solution (AA). […] NF-κB activation was determined after 20 h of incubation according to the manufacturer’s instructions (InvivoGen, San Diego, CA, USA) by mixing 20 μL of supernatant with 180 μL of SEAP detection reagent (Quanti-BlueTM, InvivoGen, San Diego, CA, USA), followed by absorbance measurement at 600 nm. Data shown are mean values ± SD obtained from at least four independent experiments, all made in triplicate. In another set of experiments, the cells were stimulated with 100 ng mL^−1 of E. coli LPS, 1 μg mL^−1 S. aureus LTA, 1 μg mL^−1 E. coli PGN, 1 μg mL^−1 S. aureus PGN, or 10 μg mL^−1 S. cerevisiae zymosan in the presence or the absence of 10 μM of linear and stapled HVF18. The experiment was performed as described above.

hCD14 = molecular target: T1, hCD14 (Homo sapiens, UniProt P08571, C306S); test: Microscale thermophoresis, binding to CD14; details: 10 mM Tris pH 7.4, read-out: Kd (µM) to CD14, MST
T1 construct: His-tag; non-native C-terminal linker with a protease-site-like motif, seen in the peptide map at 335-349 (C); made in house; host or cells: insect cells
T1 sequence (P08571 with tags, fused parts or gaps C306S limits assumed): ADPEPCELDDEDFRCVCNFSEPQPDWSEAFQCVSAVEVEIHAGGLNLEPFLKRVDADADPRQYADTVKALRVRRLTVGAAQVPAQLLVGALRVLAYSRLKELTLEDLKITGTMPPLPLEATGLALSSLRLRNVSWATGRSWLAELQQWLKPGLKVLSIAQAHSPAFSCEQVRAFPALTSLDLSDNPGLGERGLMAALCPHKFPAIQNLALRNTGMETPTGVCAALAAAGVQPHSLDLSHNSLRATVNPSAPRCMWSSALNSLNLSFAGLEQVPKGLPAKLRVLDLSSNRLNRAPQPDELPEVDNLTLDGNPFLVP
Procedure: Microscale thermophoresis (MST) was performed on a NanoTemper Monolith NT.115 apparatus (Nano Temper Technologies, Germany). A Monolith NT Protein labeling kit RED – NHS (Nano Temper Technologies, Germany) was used to label 20 μM of recombinant hCD14 according to the manufacturer’s protocol. […] The sample was then loaded into standard glass capillaries (Monolith NT Capillaries, Nano Temper Technologies), and MST analysis was performed (settings for the light-emitting diode and infrared laser were 80%).

[1] = Cell viability of THP1-XBlue-CD14 reporter cells; details: human; for viability at 20 h, 1 µM: 1 µM peptide; for viability at 20 h, 2 µM: 2 µM peptide; for viability at 20 h, 5 µM: 5 µM peptide; for viability at 20 h, 10 µM: 10 µM peptide; for viability at 20 h, 20 µM: 20 µM peptide
Procedure: as §5

[2] = test system: THP1-XBlue-CD14 reporter cells
Procedure: as §5

[3] = CD analysis after exposure to 80 °C (conformational stability); type: physicochemical; details: then CD, minima at 208 and 222 nm
[4] = molecular target: T2, P. aeruginosa elastase (PE) (Pseudomonas aeruginosa, UniProt P14756); type: in vitro ADME
T2 construct: purchased Calbiochem, Merck, Darmstadt, Germany
T2 sequence (P14756 198-498): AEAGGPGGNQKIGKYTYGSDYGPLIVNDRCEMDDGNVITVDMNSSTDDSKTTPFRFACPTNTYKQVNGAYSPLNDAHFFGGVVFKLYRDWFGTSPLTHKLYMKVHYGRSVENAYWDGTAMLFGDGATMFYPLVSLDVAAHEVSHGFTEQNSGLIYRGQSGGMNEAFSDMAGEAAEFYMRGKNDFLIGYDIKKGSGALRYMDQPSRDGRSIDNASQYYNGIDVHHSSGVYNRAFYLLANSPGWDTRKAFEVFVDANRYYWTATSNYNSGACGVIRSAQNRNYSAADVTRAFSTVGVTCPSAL
Procedure: (§1) The peptide was pre-mixed with Buffer A (1:3) 5 min before being loaded on the column. Protease-digested peptides were analyzed by HPLC as described above. Samples from two different digestions were analyzed.
(§2) Peptides were resuspended in endotoxin-free water at a final concentration of 1 mM. […] All digestions were performed in three independent experiments.
(§3) Two micrograms of peptide from each condition were loaded on 10–20% Novex Tricine pre-cast gels (Invitrogen, Carlsbad, CA, USA). The run was performed at 100 V for 100 min. The gel was stained by using Coomassie Brilliant blue (Invitrogen, Carlsbad, CA, USA), and images were acquired with a Gel Doc Imager (Bio-Rad Laboratories, Hercules, CA, USA). Samples from three independent digestions were analyzed.
(§4) LC-MS/MS analysis was performed using an HFX Orbitrap MS system (Thermo Scientific, San Jose, CA, USA) equipped with a Dionnex 3000 Ultimate HPLC (Thermo Fisher, USA). Settings were used as previously described by Petruk et al.[55] with minor changes. […] The precursor tolerance was set to 10 ppm and 0.02 Da for the MSMS fragments, and no enzyme was selected, allowing unspecific cleavage. Samples from two independent digestions were analyzed.

[5] = molecular target: T3, human neutrophil elastase (HNE) (Homo sapiens, UniProt P08246); test: Protease degradation with human neutrophil elastase (SDS-PAGE, RP-HPLC, LC-MS/MS); type: in vitro ADME
T3 construct: purchased Calbiochem, Merck, Darmstadt, Germany
T3 sequence (P08246 30-267): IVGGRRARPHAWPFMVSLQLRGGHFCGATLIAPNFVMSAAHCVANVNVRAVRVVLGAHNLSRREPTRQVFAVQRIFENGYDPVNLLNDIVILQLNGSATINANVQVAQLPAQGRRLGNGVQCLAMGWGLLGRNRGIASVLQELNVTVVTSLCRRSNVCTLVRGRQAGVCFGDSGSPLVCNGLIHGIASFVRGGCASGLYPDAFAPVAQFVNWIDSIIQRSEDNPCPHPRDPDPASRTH
Procedure: as §1, §2, §3, §4

Q: Which results are given for `CC[C@H](C)[C@H](NC(=O)[C@H](Cc1c[nH]c2ccccc12)NC(=O)[C@H](CCCCN)NC(=O)[C@H](CCCCN)NC(=O)[C@H](CC(C)C)NC(=O)[C@H](CCCNC(=N)N)NC(=O)[C@H](Cc1ccccc1)NC(=O)[C@@H](NC(=O)[C@@H](N)Cc1cnc[nH]1)C(C)C)C(=O)N[C@@H](CCC(N)=O)C(=O)N[C@@H](CCCCN)C(=O)N[C@H](C(=O)N[C@H](C(=O)N[C@@H](CC(=O)O)C(=O)N[C@@H](CCC(N)=O)C(=O)N[C@@H](Cc1ccccc1)C(=O)NCC(=O)N[C@@H](CCC(=O)O)C(=O)O)[C@@H](C)CC)C(C)C` [HVF18] (H-HVFRLKKWIQKVIDQFGE-OH)?
A: viability at 20 h, 10 µM (in vitro; LTA 1 µg/ml + peptide): 105%; viability at 20 h, 10 µM (in vitro; PGN-SA 10 µg/ml + peptide): 74.3%; Kd (hCD14; with NaCl (150 mM), measurement 1): 3.2 µM; Kd (hCD14; with NaCl (150 mM), measurement 2): 2.5 µM; Kd (hCD14; with NaCl (150 mM), measurement 3): 1.1 µM; Kd (hCD14; with NaCl (150 mM), measurement 4): 2.7 µM; Kd (hCD14; with NaCl (150 mM), measurement 5): 2.5 µM; Kd (hCD14; with NaCl (150 mM), measurement 6): 1.6 µM; Kd (hCD14; without NaCl, measurement 1): 8.3 µM; Kd (hCD14; without NaCl, measurement 2): 6.2 µM; Kd (hCD14; without NaCl, measurement 3): 5.9 µM; Kd (hCD14; without NaCl, measurement 4): 8.7 µM; Kd (hCD14; without NaCl, measurement 5): 7.5 µM; Kd (hCD14; without NaCl, measurement 6): 2.1 µM; viability at 20 h, 1 µM ([1]; with LPS, replicate 1): 79.5%; viability at 20 h, 1 µM ([1]; with LPS, replicate 2): 76.5%; viability at 20 h, 1 µM ([1]; with LPS, replicate 3): 83.4%; viability at 20 h, 1 µM ([1]; with LPS, replicate 4): 78.1%; viability at 20 h, 2 µM ([1]; with LPS, replicate 1): 94.1%; viability at 20 h, 2 µM ([1]; with LPS, replicate 2): 84.3%; viability at 20 h, 2 µM ([1]; with LPS, replicate 3): 83.2%; viability at 20 h, 2 µM ([1]; with LPS, replicate 4): 88.3%; viability at 20 h, 5 µM ([1]; with LPS, replicate 1): 107%; viability at 20 h, 5 µM ([1]; with LPS, replicate 2): 97.5%; viability at 20 h, 5 µM ([1]; with LPS, replicate 3): 80.5%; viability at 20 h, 5 µM ([1]; with LPS, replicate 4): 82.3%; viability at 20 h, 10 µM ([1]; with LPS, replicate 1): 89.5%; viability at 20 h, 10 µM ([1]; with LPS, replicate 2): 92.1%; viability at 20 h, 10 µM ([1]; with LPS, replicate 3): 82.5%; viability at 20 h, 10 µM ([1]; with LPS, replicate 4): 103%; viability at 20 h, 20 µM ([1]; with LPS, replicate 1): 90.6%; viability at 20 h, 20 µM ([1]; with LPS, replicate 2): 85.3%; viability at 20 h, 20 µM ([1]; with LPS, replicate 3): 77.4%; viability at 20 h, 20 µM ([1]; with LPS, replicate 4): 91.1%; viability at 20 h, 20 µM ([1]; without LPS, replicate 1): 99.3%; viability at 20 h, 20 µM ([1]; without LPS, replicate 2): 72.9%; viability at 20 h, 20 µM ([1]; without LPS, replicate 3): 84.9%; viability at 20 h, 20 µM ([1]; without LPS, replicate 4): 73.7%; Cell viability, PGN-EB 1 µg/ml + peptide [2]: 85.0457

Q: For `CC[C@H](C)[C@H](NC(=O)[C@H](Cc1c[nH]c2ccccc12)NC(=O)[C@H](CCCCN)NC(=O)[C@H](CCCCN)NC(=O)[C@H](CC(C)C)NC(=O)[C@H](CCCNC(=N)N)NC(=O)[C@H](Cc1ccccc1)NC(=O)[C@@H](NC(=O)[C@@H](N)Cc1c[nH]cn1)C(C)C)C(=O)N[C@@]1(C)CCCC=CCCC[C@@](C)(C(=O)N[C@@H](CCC(N)=O)C(=O)N[C@@H](Cc2ccccc2)C(=O)NCC(=O)N[C@@H](CCC(=O)O)C(=O)O)NC(=O)[C@H]([C@@H](C)CC)NC(=O)[C@H](C(C)C)NC(=O)[C@H](CCCCN)NC1=O` [sHVF18], which viability at 20 h, 10 µM (in vitro; LTA 1 µg/ml + peptide) is on record?
A: Its viability at 20 h, 10 µM is 91.3%.

Q: What about the viability at 20 h, 10 µM (in vitro; PGN-SA 10 µg/ml + peptide) of the same compound?
A: Its viability at 20 h, 10 µM is 55.8%.

Q: And the “Conformational stability after exposure to 80 °C (CD analysis)” value [3]?
A: Its value is “still presented an α-helical spectrum”.

Q: What about the “Resistance to P. aeruginosa elastase (in words)” value ([4]; 0.2 µg PE, 0–18 h, SDS-PAGE, RP-HPLC, LC-MS/MS, versus linear peptide) of the same compound?
A: The value was “improved resistance”.

Q: And the “Fragmentation seen by LC-MS/MS after PE digestion (in words)” value ([4]; 30 min and 3 h)?
A: Its value is “no identified sHVF18 fragments”.

Q: And the “Fragmentation seen by LC-MS/MS after HNE digestion (in words)” value [5]?
A: The value was “no identified sHVF18 fragments”.

Q: And the viability at 20 h, 1 µM ([1]; with LPS, replicate 1)?
A: Its viability at 20 h, 1 µM is 88.7%.

Q: What about the viability at 20 h, 1 µM ([1]; with LPS, replicate 2) of the same compound?
A: The viability at 20 h, 1 µM was 90.5%.

Q: What about the viability at 20 h, 1 µM ([1]; with LPS, replicate 3) of the same compound?
A: The viability at 20 h, 1 µM was 78.9%.

Q: What about the viability at 20 h, 1 µM ([1]; with LPS, replicate 4) of the same compound?
A: The viability at 20 h, 1 µM was 86.3%.

Q: What about the viability at 20 h, 2 µM ([1]; with LPS, replicate 1) of the same compound?
A: Its viability at 20 h, 2 µM is 102%.

Q: What about the viability at 20 h, 2 µM ([1]; with LPS, replicate 2) of the same compound?
A: Its viability at 20 h, 2 µM is 92.8%.

Q: And the viability at 20 h, 2 µM ([1]; with LPS, replicate 3)?
A: Its viability at 20 h, 2 µM is 74.9%.

Q: And the viability at 20 h, 2 µM ([1]; with LPS, replicate 4)?
A: The viability at 20 h, 2 µM was 96.3%.

Q: What about the viability at 20 h, 5 µM ([1]; with LPS, replicate 1) of the same compound?
A: The viability at 20 h, 5 µM was 106%.

Q: What about the viability at 20 h, 5 µM ([1]; with LPS, replicate 2) of the same compound?
A: The viability at 20 h, 5 µM was 93.7%.

Q: What about the viability at 20 h, 5 µM ([1]; with LPS, replicate 3) of the same compound?
A: Its viability at 20 h, 5 µM is 79.1%.

Q: And the viability at 20 h, 5 µM ([1]; with LPS, replicate 4)?
A: The viability at 20 h, 5 µM was 95%.

Q: And the viability at 20 h, 10 µM ([1]; with LPS, replicate 1)?
A: Its viability at 20 h, 10 µM is 99.1%.

Q: What about the viability at 20 h, 10 µM ([1]; with LPS, replicate 2) of the same compound?
A: The viability at 20 h, 10 µM was 88.8%.

Q: And the viability at 20 h, 10 µM ([1]; with LPS, replicate 3)?
A: Its viability at 20 h, 10 µM is 82.4%.

Q: What about the viability at 20 h, 10 µM ([1]; with LPS, replicate 4) of the same compound?
A: The viability at 20 h, 10 µM was 87.8%.

Q: And the viability at 20 h, 20 µM ([1]; with LPS, replicate 1)?
A: Its viability at 20 h, 20 µM is 104%.

Q: And the viability at 20 h, 20 µM ([1]; with LPS, replicate 2)?
A: The viability at 20 h, 20 µM was 70.9%.

Q: What about the viability at 20 h, 20 µM ([1]; with LPS, replicate 3) of the same compound?
A: Its viability at 20 h, 20 µM is 67.5%.

Q: And the viability at 20 h, 20 µM ([1]; with LPS, replicate 4)?
A: Its viability at 20 h, 20 µM is 77.9%.

Q: And the viability at 20 h, 20 µM ([1]; without LPS, replicate 1)?
A: Its viability at 20 h, 20 µM is 112%.

Q: What about the viability at 20 h, 20 µM ([1]; without LPS, replicate 2) of the same compound?
A: The viability at 20 h, 20 µM was 69.7%.

Q: What about the viability at 20 h, 20 µM ([1]; without LPS, replicate 3) of the same compound?
A: The viability at 20 h, 20 µM was 81.5%.

Q: And the viability at 20 h, 20 µM ([1]; without LPS, replicate 4)?
A: Its viability at 20 h, 20 µM is 90.5%.

Q: What about the “Cell viability, PGN-EB 1 µg/ml + peptide” value [2] of the same compound?
A: Its value is 75.0616.

Q: And the “Cell viability, PGN-SA 10 µg/ml + peptide” value [2]?
A: The value was 69.8483.

Q: What about the “Cell viability, Zymosan 10 µg/ml + peptide” value [2] of the same compound?
A: Its value is 73.0816.
